Results from article PMC12655518, “Screening Novel Furoxan Derivatives as Potential Inhibitors Targeting Thioredoxin Glutathione Reductase of Fasciola gigantica” (Pharmaceuticals, 2025).
Read-outs that look alike come from different tables or passages of the source.

Tests used:
FgTGRsec (TrxR activity) [1] = biological target: T1, FgTGRsec (TrxR activity) (Fasciola gigantica, UniProt A0A0K1NYF8); test: DTNB-based TrxR activity inhibition assay of FgTGRsec; assay type: biochemical; conditions: DTNB reduction, 20 min incubation, triplicate, read-out: IC50 of rFgTGRsec
Protocol: The TrxR activity of FgTGR and FgTGRsec was determined by using the 5, 5′-diothiobis (2-nitrobenzoic acid, DTNB, 4 mg/mL) (Sigma, St. Louis, MO, USA) reduction assay at room temperature. The reaction mixture was composed of 180 μL working buffer (0.1 mM potassium phosphate, pH 7.0, 10 mMEDTA, 100 μM β-nicotinamide adenine dinucleotide phosphate (NADPH) (Sigma)), 4 μL assay buffer (0.1 mM potassium phosphate, pH 7.0, 10 mM EDTA), 6 μL DTNB, and 10 μL rFgTGR or rFgTGRsec (600 μg/mL). The reaction was initiated by the adding DTNB at concentrations ranging from 100 μmol/L to 1000 μmol/L. An increase in absorbance at 412 nm was observed within the first 2 min. One unit of thioredoxin reductase (TrxR) activity was defined as the amount of enzyme that catalyzes the production of 1 μmol of 2-nitro-5-thiobenoic acid (TNB) per minute at room temperature. The reaction mixture without FgTGR or FgTGRsec was used as a negative control, and the processes of the negative experiments were the same as the above description.
To evaluate the effect of furoxan derivatives on FgTGRsec, the activity of TrxR was measured. The furoxan derivatives were soluble in dimethyl sulfoxide (DMSO), and seven concentrations of each derivative were prepared based on their distinct structures. For the DTNB-based TrxR activity inhibition assay, reaction mixtures were prepared as described in the TrxR activity assay protocol. The components were incubated for 20 min, after which the reaction was initiated by adding DTNB. The increase in absorbance at 412 nm was measured to evaluate the inhibitory effect of each furoxan derivative. The half-maximal inhibitory concentration (IC50) values of the compounds were calculated by GraphPad Prism v6.0c software. The reaction without FgTGRsec and furoxan derivatives served as the blank control, while the reaction with furoxan was the positive control. All assays were performed in triplicate.

SjTGRsec (TrxR activity) = test system: SjTGRsec (TrxR activity); design: method as in PMID 33902686; conditions: S. japonicum, result in words; cited from earlier work
FgTGRsec (GR activity) = test system: FgTGRsec (GR activity); design: method as in PMID 29526505; conditions: cited from earlier work
FgTGRsec (TrxR activity) [2] = biological target: T1, FgTGRsec (TrxR activity); design: method as in PMID 29526505; conditions: cited from earlier work
[3] = test system: Taenia crassiceps cysticerci; design: method as in PMID 20431894; conditions: cited from earlier work

T1 sequence (A0A0K1NYF8 entry or part of it): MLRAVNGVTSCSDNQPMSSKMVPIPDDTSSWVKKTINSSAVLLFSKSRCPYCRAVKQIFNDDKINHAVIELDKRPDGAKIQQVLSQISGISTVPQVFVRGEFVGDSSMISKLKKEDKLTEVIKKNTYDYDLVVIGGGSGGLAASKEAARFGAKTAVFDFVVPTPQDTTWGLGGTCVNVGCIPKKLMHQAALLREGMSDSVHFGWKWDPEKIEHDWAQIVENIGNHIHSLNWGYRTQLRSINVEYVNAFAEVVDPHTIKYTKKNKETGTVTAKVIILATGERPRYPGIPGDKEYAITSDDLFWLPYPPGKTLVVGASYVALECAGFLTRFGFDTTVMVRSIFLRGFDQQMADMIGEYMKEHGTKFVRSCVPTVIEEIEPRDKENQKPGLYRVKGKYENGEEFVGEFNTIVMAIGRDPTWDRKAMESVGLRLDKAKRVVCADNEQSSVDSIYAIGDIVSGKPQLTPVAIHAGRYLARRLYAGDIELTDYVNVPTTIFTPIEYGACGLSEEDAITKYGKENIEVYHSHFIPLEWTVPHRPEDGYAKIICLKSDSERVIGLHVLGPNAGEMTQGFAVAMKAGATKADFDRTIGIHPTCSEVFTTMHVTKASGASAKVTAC

| SMILES | IC50 (FgTGRsec (TrxR activity) [1]) | other results |
| --- | --- | --- |
| [O-][n+]1onc(-c2ccc(C(F)(F)F)nc2)c1CO [LGM-35] | 4.5 ± 0.35 µM | inhibition of TrxR activity (SjTGRsec (TrxR activity)): most significant inhibition |
| [O-][n+]1onc(-c2cccc(Cl)c2)c1CO [ZWJ-19] | 3.82 ± 0.33 µM |  |
| [O-][n+]1onc(-c2ccncc2)c1CO [LGM-2] | 15.2 ± 0.8 µM |  |
| CC(=O)OC[C@H]1O[C@@H]([S-])[C@H](OC(C)=O)[C@@H](OC(C)=O)[C@@H]1OC(C)=O.CCP(CC)CC.[Au+] [AF, auranofin] |  | IC50 (FgTGRsec (GR activity)): 8.3 µM; IC50 (FgTGRsec (TrxR activity) [2]): 0.87 µM; IC50 ([3]; Taenia crassiceps cysticerci cultured with AF for 12 h): 3.8 µM; survival of cysticerci ([3]; after culturing with AF for 12 h): all dead |
| [O-][n+]1onc(-c2cccnc2)c1CO [LGM-1] | 6.93 ± 1.74 µM |  |
| [O-][n+]1onc(-c2ccc(C(F)(F)F)cc2)c1CN1CCN(c2ccccc2F)CC1 [CH-33] | 18.5 ± 2.57 µM |  |
